Experimental data as given in ChEMBL document CHEMBL1938310, “Discovery of novel antitubercular 1,5-dimethyl-2-phenyl-4-([5-(arylamino)-1,3,4-oxadiazol-2-yl]methylamino)-1,2-dihydro-3H-pyrazol-3-one analogues” (Bioorg Med Chem Lett, 2012).
In brackets after ≈: the same amount, converted by molar mass.

Legend:
[1] = system: Mycobacterium tuberculosis; test: Antimycobacterial activity against Mycobacterium tuberculosis H37Rv by two fold agar dilution method; assay type: functional
Vero = test: Cytotoxicity against African green monkey Vero cells at 62.5 ug/ml after 72 hrs by MTT assay; assay type: cell-based; conditions: chlorocebus sabaeus

Cc1ccc(Nc2nnc(CNc3c(C)n(C)n(-c4ccccc4)c3=O)o2)c(C)c1
MIC [1]: 12.5 µg/mL (≈ 30.9 µM)

Cc1ccc(Nc2nnc(CNc3c(C)n(C)n(-c4ccccc4)c3=O)o2)cc1
MIC [1]: 12.5 µg/mL (≈ 32 µM)

Cc1c(NCc2nnc(Nc3ccc(Cl)cc3)o2)c(=O)n(-c2ccccc2)n1C
MIC [1]: 6.25 µg/mL (≈ 15.2 µM)
Activity (Vero): Non-toxic

COc1ccc(Nc2nnc(CNc3c(C)n(C)n(-c4ccccc4)c3=O)o2)c(OC)c1
MIC [1]: > 12.5 µg/mL

Cc1c(NCc2nnc(Nc3ccccc3)o2)c(=O)n(-c2ccccc2)n1C
MIC [1]: 10 µg/mL (≈ 26.6 µM)

COc1ccc(Nc2nnc(CNc3c(C)n(C)n(-c4ccccc4)c3=O)o2)cc1
MIC [1]: 12.5 µg/mL (≈ 30.8 µM)

Cc1c(Cl)cccc1Nc1nnc(CNc2c(C)n(C)n(-c3ccccc3)c2=O)o1
MIC [1]: 10 µg/mL (≈ 23.5 µM)

Cc1c(NCc2nnc(Nc3ccc(Br)cc3)o2)c(=O)n(-c2ccccc2)n1C
MIC [1]: 6.25 µg/mL (≈ 13.7 µM)
Activity (Vero): Non-toxic

CCOc1ccc(Nc2nnc(CNc3c(C)n(C)n(-c4ccccc4)c3=O)o2)cc1
MIC [1]: > 12.5 µg/mL

NNC(=O)c1ccncc1 [ISONIAZID]
MIC [1]: 0.78 µg/mL (≈ 5.69 µM)

Cc1c(NCc2nnc(Nc3ccc(F)cc3)o2)c(=O)n(-c2ccccc2)n1C
MIC [1]: 0.78 µg/mL (≈ 1.98 µM)
Activity (Vero): Non-toxic

Cc1cccc(C)c1Nc1nnc(CNc2c(C)n(C)n(-c3ccccc3)c2=O)o1
MIC [1]: 10 µg/mL (≈ 24.7 µM)

Cc1c(NCc2nnc(Nc3ccc([N+](=O)[O-])cc3)o2)c(=O)n(-c2ccccc2)n1C
MIC [1]: 3.12 µg/mL (≈ 7.4 µM)
Activity (Vero): Non-toxic

Cc1c(NCc2nnc(Nc3ccccc3Cl)o2)c(=O)n(-c2ccccc2)n1C
MIC [1]: 10 µg/mL (≈ 24.3 µM)

Cc1c(NCc2nnc(Nc3ccc(F)c(Cl)c3)o2)c(=O)n(-c2ccccc2)n1C
MIC [1]: 6.25 µg/mL (≈ 14.6 µM)
Activity (Vero): Non-toxic

Cc1c(NCc2nnc(Nc3ccc(O)cc3)o2)c(=O)n(-c2ccccc2)n1C
MIC [1]: 10 µg/mL (≈ 25.5 µM)

Cc1c(NCc2nnc(Nc3ccc(S(N)(=O)=O)cc3)o2)c(=O)n(-c2ccccc2)n1C
MIC [1]: 3.12 µg/mL (≈ 6.85 µM)
Activity (Vero): Non-toxic
